Assay results published in US20240398844A1, “PHENYLCOUMARINS FOR TREATING INFLAMMATION” (Ohio State Innovation Foundation, priority 2021, published 2024).
Entries after “also recorded” stand apart in the source; their conditions may differ.

What was measured:
PPAR-γ = molecular target: T1, PPAR-γ (Homo sapiens, UniProt P37231); assay: PPAR-γ ELISA Assay in HeLa cells (in vitro PPAR-γ assay); assay type: cell-based; conditions: 50 μg/mL; for PPAR-γ activity in the in vitro assay (in words): versus positive control rosiglitazone
T1 construct: endogenous in cells; host or cells: HeLa
T1 sequence (P37231 1-505): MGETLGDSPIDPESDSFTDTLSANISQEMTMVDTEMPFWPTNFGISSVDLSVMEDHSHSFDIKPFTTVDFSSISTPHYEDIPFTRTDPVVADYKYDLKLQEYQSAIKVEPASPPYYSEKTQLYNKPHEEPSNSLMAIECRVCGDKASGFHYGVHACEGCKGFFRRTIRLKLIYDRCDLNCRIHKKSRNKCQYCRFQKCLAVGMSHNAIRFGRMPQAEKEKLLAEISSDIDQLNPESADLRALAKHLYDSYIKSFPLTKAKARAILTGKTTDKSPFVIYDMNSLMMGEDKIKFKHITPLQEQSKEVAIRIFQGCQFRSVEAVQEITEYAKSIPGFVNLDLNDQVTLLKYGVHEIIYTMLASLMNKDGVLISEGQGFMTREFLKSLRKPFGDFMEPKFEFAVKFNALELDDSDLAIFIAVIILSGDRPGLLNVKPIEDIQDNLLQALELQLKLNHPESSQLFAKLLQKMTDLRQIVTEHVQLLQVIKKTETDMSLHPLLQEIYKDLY
Protocol: In addition to the Western blot, the diverse library was also screened in the in vitro PPAR-γ assay. […] The compounds were tested at 50 μg/mL according to the protocol detailed in section 3.2.3.

HbA1C = assay: Diabetic zebrafish Western blot, HbA1C expression; assay type: in vivo
Protocol: Alloxan-induced diabetic zebrafish were treated with compounds for immunoblot to validate the newly developed animal model, determine the antidiabetic potential of natural product leads, evaluate glucose metabolism, and discover possible mechanisms of action.
At 72 hpf, naturally dechorionated zebrafish were sorted into a 24-well microplate with 10 fish per well. Type 2 diabetes was induced with the diabetogenic agent alloxan at a dose of 0.5 mg/mL in system water for 3 hours. […] After 3 hours of treatment with natural product samples, 10 mg/mL D-glucose was administered in system water for 30 minutes, followed by 1 hour in fresh system water to metabolize the glucose and natural product leads. Upon completion of the 4-phase treatment cycle, zebrafish treatment groups were snap frozen into individual microcentrifuge tubes on dry ice, stored overnight at −80° C., thawed, homogenized with 2 μL PBS per animal, and centrifuged at 4° C. for 1 hour at 17,000 rpm. Protein content of homogenate supernatant was determined using the Pierce BCA Protein Assay kit (Pierce Biotechnology) and bovine serum albumin (BSA) standard curve. Absorbance of protein solutions from zebrafish homogenates and serial dilutions of the BSA standard were measured at 544 nm, using a FLUOstar Optima plate reader (BMG Labtechnologies GmbH, Inc.). Homogenates were analyzed by Western blot. Equal amounts of protein (20 μg) were combined with 4× lithium dodecyl sulphate (LDS) loading buffer (NuPAGE, Life Technologies, Carlsbad, CA, USA), brought to volume (15 μL) with PBS, and heated to 95° C. for 5 minutes. Proteins were resolved using NuPAGE Bis-Tris 4-12% gradient sodium dodecyl sulfate polyacrylamide gel electrophoresis (SDS-PAGE) gels together with SeeBlue Plus2 Pre-Stained Standard Ladder (Life Technologies).
Electrophoresis was performed using NuPAGE MES SDS Running Buffer and XCell SureLock Mini-Cell Electrophoresis System (Life Technologies). Separated proteins were transferred from the gel to a polyvinylidene fluoride (PVDF) membrane using tris buffered saline with Tween-20 (TBST) buffer. The blots were blocked in 3% BSA in TBST and subsequently probed using primary antibodies (1:1000 in 1% BSA in TBST) against each target overnight (Table 1). The secondary, horseradish peroxidase (HRP) conjugated antibodies (1:2000) were obtained from Santa Cruz Biotechnology Inc., (Santa Cruz, CA, USA). Conjugated antibodies were detected using SuperSignal West Femto chemiluminescent substrate from Pierce Biotechnology. Western blots were visualized, and images captured using a luminometer and LumiAnalyst 3.0 software (Boehringer-Mannheim, Mannheim, Germany). Band density was quantified for proteins of interest using ImageJ Gel Analysis.
In the case of duplicate blots, the band density results were expressed in bar graphs as the mean±standard error of the mean (SEM) of two independent experiments. Due to the labor- and time-intensive aspect of Western blot analysis with multiple target proteins, a maximum of two independent immunoblot experiments were performed per compared sample set. […] Additionally, treatment groups were also evaluated versus the diabetic, untreated control group for significance by Student's f-test and indicated in the bar graphs with p values represented by *p<0.05, **p<0.01, and ***p<0.001. […]

PEPCK = assay: Diabetic zebrafish Western blot, PEPCK expression; assay type: in vivo; conditions: FIG. 8; for PEPCK expression, efficacy of lower doses: diabetic zebrafish, 5 and 1 μM; for PEPCK expression, dose dependence: diabetic zebrafish, 10, 5, and 1 μM
[1] = diabetic zebrafish, 10, 5, and 1 μM (rosiglitazone 10 μM), duplicate blots, FIG. 7

**Q.** Which activation at 50 µg/mL (PPAR-γ; Table 4) does the source give for `COc1cc(O[C@@H]2OCC(O)(CO[C@@H]3OC(CO)[C@@H](O)C(O)C3O)C2O)c2c(-c3ccc(OC(C)C)c(O)c3)cc(=O)oc2c1` (single isomer, unassigned) [Compound 40] here?
**A.** 0%

**Q.** And the “PPAR-γ activity in the in vitro assay (in words)” value (PPAR-γ)?
**A.** loss of all activity

**Q.** What about the “HbA1C expression (Western blot band density)” value (“HbA1C expression” below) (HbA1C; [1]) of the same compound?
**A.** lacking a dose-dependent response

**Q.** What about the “PEPCK expression, efficacy of lower doses” value (PEPCK) of the same compound?
**A.** not effective

**Q.** What about the “PEPCK expression, dose dependence” value (PEPCK) of the same compound?
**A.** dose-dependent increase in PEPCK expression; also recorded: slightly less active than the parent compound

**Q.** `COc1cc(O[C@@H]2O[C@H](CO[C@@H]3OCC(O)(CO)[C@H]3O)[C@@H](O)[C@H](O)[C@H]2O)c2c(-c3ccc(O)c(O)c3)cc(=O)oc2c1` (stereo partly drawn) [Compound 24, 5-O-[β-D-apiofuranosyl-(1→6)-β-D-glucopyranosyl]-7-methoxy-3′,4′-dihydroxy-4-phenylcoumarin] was tested. Which “% Activation PPAR-γ” value (PPAR-γ; Table 2) did it give?
**A.** 101%

**Q.** What about the “% Activation PPAR-γ” value (PPAR-γ; Table 4) of the same compound?
**A.** 101%

**Q.** And the “PPAR-γ activity in the in vitro assay (in words)” value (PPAR-γ)?
**A.** top performers

**Q.** What about the “HbA1C expression” value (HbA1C; diabetic zebrafish, 10 μM, library screen, FIG. 2 / FIG. 11) of the same compound?
**A.** most effective in reducing glycated hemoglobin

**Q.** And the “HbA1C expression” value (HbA1C; [1])?
**A.** reduced glycated hemoglobin levels in comparison to rosiglitazone

**Q.** What about the “PEPCK expression, efficacy of lower doses” value (PEPCK) of the same compound?
**A.** not effective

**Q.** And the “PEPCK expression, dose dependence” value (PEPCK)?
**A.** dose-dependent increase in PEPCK expression
